# Assay results: patent US10080779B2, “Method for increasing the expression of anti-microbial peptides by keratinocytes comprising administering a composition comprising IL-17, TNF-alpha and OSM” (Universite D'Angers, priority 2004, dated 2018)
# Key:
# MAP kinase (ERK1/2) = assay: MAP kinase phosphorylation in NHEK (Western blot); format: cell-based, human; conditions: NHEK stimulated with OSM
# Experimental: For STAT3 and MAPK phosphorylation, NHEK were stimulated for 15 min in the presence of the indicated cytokine. Cells were lysed in SDS sample buffer (62.5 mM Tris-HCl pH 6.8, 2% SDS, 10% glycerol, 50 mM DTT, 0.1% bromophenol blue), sonicated and then submitted to SDS-PAGE and transferred onto an Immobilon membrane. The membranes were subsequently incubated overnight with the primary antibody, before being incubated with the appropriate peroxidase-labelled secondary antibody for 60 min. The reaction was visualized by chemiluminescence according to the manufacturer's instructions. Membranes were stripped in 0.1 M glycine pH 2.8 for 2 h and neutralized in 1 M Tris-HCl pH 7.6 before reblotting. For neutralizing experiments, NHEK were incubated with the appropriate antibodies for 2 h before stimulation.
# NHEK [1] = assay: In vitro keratinocyte migration assay; format: cell-based, human; conditions: mitomycin-treated wounded NHEK; OSM 10 ng/ml, IL-31 100 ng/ml
# Experimental: Keratinocytes were cultured in wells pre-coated with type I collagen (200 μg/ml, Institut Jacques Boy, Reims, France) until they reached 80% confluency. Cells were starved for 48 h in Keratinocyte SFM and then treated with 10 μg/ml of mitomycin C (Sigma) for 2 h to prevent cell proliferation. A cell-free area was created by scraping the keratinocyte monolayer with a plastic pipette tip. Keratinocytes migration to the cell-free area was evaluated after 48 h of culture in the absence or presence of EGF or OSM. Using an inverted phase contrast microscope. The number of migrating keratinocytes was counted in 4 non-overlapping fields. Values represent the mean±SEM of cells per mm^2 beyond the frontiers of the in vitro injury. Student's t test was used for statistical analysis.
# NHEK [2] = assay: Chemokine production by NHEK (ELISA), OSM; format: cell-based, human; conditions: 48 h NHEK under OSM stimulation
# Experimental: IL-1beta, IL-6, IL-8, IL-10, IL-12p70, TNF alpha, ENA-78, MIP 3 beta were measured by specific ELISA in 48 h NHEK culture supernatants. Cells were cultured in the presence or not of OSM. Dose-response (0.4 to 25 ng/ml) and kinetic (6 to 96 h) studies of ENA78 production were also performed.
# [3] = tested on: reconstituted human epidermis (RHE); assay: Reconstituted human epidermis model, histology and immunohistochemistry (OSM); format: cell-based
# Experimental: For histological and immunohistochemical studies, RHE, grown for 12 days at the air-medium interface, were purchased from SkinEthic Laboratories (Nice, France). […] As recommended, RHE were grown for 1 day in SkinEthic growth medium prior to stimulation in the absence or presence of OSM for 4 days. They were then fixed in a balanced 10% formalin solution and embedded in paraffin. Four micron vertical sections were stained with heamatoxylin/eosin or with specific Ab and peroxidase-conjugated Antibodies, and counterstained with haematoxylin according to standard protocols (Rosdy, Bertino et al. 1997). Anti-K10 keratin and anti-filaggrin monoclonal Antibodies were from Lab Vision Corporation (Fremont, Calif., USA).
# NHEK [4] = assay: Cytokine measurement by ELISA in NHEK culture supernatants; format: cell-based, human; conditions: 10 ng/ml, 96 h
# Experimental: NHEK were obtained as previously described, from surgical samples of healthy breast skin (Boniface et al, 2005). NHEK were cultured to 80% of confluence and then starved for 24 h in Keratinocyte SFM without addition of growth factors before stimulation. Cells were stimulated with or without 10 ng/ml of recombinant IL-17A, OSM, TNFα, IL-22 and IL-1α alone or in combination (R&D systems Europe, Lille, France) during 24 h for mRNA quantification or 48 h to 96 h for protein quantification.
# Levels of BD2, BD3 and CXCL8 were determined using Human ELISA development kit (Peprotech), and CXCL1 and CXCL5 with DuoSet reagents (R&D Systems Europe).
# NHEK [5] = assay: Keratinocyte differentiation marker (KDM) mRNA in NHEK (RT-PCR); format: cell-based, human; conditions: 24 h
# Experimental: Normal human epidermal keratinocytes (NHEK) were obtained as previously described, from surgical samples of healthy breast skin (Boniface et al, 2005). NHEK were cultured to 80% of confluence allowing the expression of a large panel of keratinocyte differentiation markers, and then starved for 24 h in Keratinocyte SFM containing 0.03 mM Ca^2+ (Invitrogen Life Technologies, Cergy Pontoise, France) before stimulation. Confluent differentiated cells were stimulated with or without recombinant IL-17A, OSM, TNFα, IL-22 and IL-1α alone at maximum effective concentrations (reported previously around 10 ng/ml (Boniface et al, 2005 and Boniface et al, 2007)) or in combination (R&D systems Europe, Lille, France) during 2 h to 72 h for mRNA quantification. RHE were generated on polycarbonate culture inserts, from surgical samples of paediatric foreskins as previously described (Guenou et al., 2009). RHE were stimulated with or without recombinant IL-17A, OSM, TNFα, IL-22 and IL-1α alone or in combination, with or without a Janus protein Tyrosine Kinases (JAKs) inhibitor 10 μM (Calbiochem, 420099), during 24 h for mRNA quantification or during 72 h for immunohistological analysis.
# NHEK, RHE and murine skin total RNA were isolated using NucleoSpin® RNA II kit (Macherey-Nagel, Hoerdt, France) and reverse-transcribed with SuperScript® II Reverse Transcriptase (Invitrogen Life Technologies) according to the manufacturer's instructions. Quantitative real time PCR was carried out using the LightCycler-FastStart DNA Master SYBR® Green I kit on LightCycler 480 (Roche Diagnostics, Meylan, France). The reaction components were 1×DNA Master Mix, and 0.5 μM of HPLC purified sense and anti-sense oligonucleotides purchased from Eurogentec (Eurogentec France, Angers, France), designed using Primer3 software. The stability of the housekeeping gene expression has been assessed by using GeNorm algorithm. […] Thus samples were normalized to G3PDH housekeeping gene and reported according to the ΔΔCT method as RNA fold increase: 2^ΔΔCT=2^ΔCT sample−ΔCT reference.
substance,measurement,setting,value
"OSM: human recombinant oncostatin M, cytokine of the IL-6 family",MAP kinase phosphorylation,MAP kinase (ERK1/2),quickly increased the MAP kinase phosphorylation
same,Keratinocyte migration to the cell-free area,NHEK [1],"important migration of NHEK, similar to that observed in the presence of EGF"
same,Production of chemokines CXCL5 and CXCL8,NHEK [2],clearly enhanced
same,Hyperplasia / overall thickness of RHE,"[3]; 10 ng/ml OSM, 4 days",triggered the hyperplasia of the keratinocytes layers
same,Ki67 expression,[3]; RHE treated with OSM,not induced
same,Filaggrin and keratin 10 expression (immunohistochemistry),"[3]; RHE, 10 ng/ml OSM, 4 days",decrease of filaggrin and keratin 10 expression
same,S100A7 protein (immunohistochemistry),"[3]; RHE, 10 ng/ml OSM, 4 days",S100A7 protein up-regulation
same,BD3 production,NHEK [4],significant increase
same,"CXCL1, CXCL5, CXCL8 production, single cytokines",NHEK [4],discrete effect
same,Rank as contributor to keratinocyte differentiation inhibition (removal from M5),NHEK [5],most potent cytokines for keratinocyte differentiation inhibition
same,"mRNA expression of CK1, DSG1, DSC1, FLG, CLSP, LOR and FABPS",NHEK [5]; single cytokines 10 ng/ml,downregulate mRNA expression
